The source made the active and inactive calls.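 Rule for the calls: active = compounds giving half or more protection of infected cells from virus-caused growth loss, again on retest; inactive = the rest.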
Test system: CEM cells HIV-1 protection, formazan growth assay
Experiment: NCI AIDS Antiviral Assay
Details: for IC50: measured here: growth of uninfected CEM cells
Summary of the method: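 Five concentrations of each compound were applied to infected and uninfected human CEM cells. Protection from HIV-1 was judged from growth measured with a soluble formazan assay.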

SMILES	EC50 [µM]	IC50 [µM]	outcome
Cc1cc(C)c(C(=O)O)c(SSc2cc(C)cc(C)c2C(=O)O)c1	46.8	123	
CC(C)CC(NC(=O)C(COc1ccc([N+](=O)[O-])cc1)Cc1ccccc1)C(=O)Nc1ccccc1 (stereo not drawn)	> 100	15.1	
C1CCN(c2nc(=[N+]3CCCCC3)ss2)CC1			inactive
CCNC(=O)c1cc(NC(=O)c2ccc(C(=O)Nc3cc(C(=O)NCC)cc(C4=NCCN4)c3)cc2)cc(C2=NCCN2)c1	> 200	87.1	
CCOC(=O)c1ccc(CS(=O)c2ccc(OC)cc2)c([N+](=O)[O-])c1 (stereo not drawn)	> 100	12.3	
COc1ccc2c3ccc4c(c3n(C)c2c1)C(=O)C=CC4=O	> 3.55	> 3.55	
CC(C)N(C(=O)c1cccc(C(=O)N(C(C)C)C(C)C)c1)C(C)C	> 759	468	
NC(CSS(=O)(=O)O)=NCCCCC1CCCCC1	> 200	30.9	
O=S(=O)(O)c1cc2onnc2c2ccccc12	> 1000	525	
c1ccc2sc(CN(Cc3nc4ccccc4s3)Cc3nc4ccccc4s3)nc2c1	> 40.7	> 40.7	
CC(=O)Nc1ccc(C(=O)NN2C(=O)C(Cl)C2c2ccc([N+](=O)[O-])cc2)cc1 (stereo not drawn)	> 200	112	
COc1cc2c(c(OC)c1OC)-c1cccc(=O)cc1C(NC(C)=O)CC2 (stereo not drawn)	> 2	0.0389	
O=C1c2ccccc2C(=O)C2C1C1C(=O)c3ccccc3C(=O)C21 (stereo not drawn)			inactive
COc1ccc(-c2oc3cc(O)c(OC)c(O)c3c(=O)c2OC2OC(CO)C(O)C(O)C2O)cc1 (stereo not drawn)			inactive
COC(=O)[C@H](CC(C)C)NC(=O)[C@H](Cc1ccccc1)N1CC2C=CC1C2 (stereo partly drawn)	> 676	> 676	
COC(=O)C1=C(N2CCCC2)C2c3ccccc3SC12C(=O)OC (stereo not drawn)	5.75	55	
OCCN(CCO)CCCNc1ccnc2cc(Cl)ccc12	> 200	18.2	
Cc1ccc(S(=O)(=O)Nc2nc3ccccc3c(=O)n2C2CCCCC2)cc1	> 200	> 200	
Cc1c(O)c(OC2OC(CO)C(O)C(O)C2O)cc2c1CC[C@@H]1C2(C)C(=O)C[C@]2(C)[C@@H]([C@@](C)(O)C(=O)CCC(C)(C)O)[C@H](O)C[C@@]12C (stereo partly drawn)	> 200	> 200	
COc1ccc(Cc2nccc3cc(OC)c(OC)cc23)cc1	> 72.4	69.2	
NC(=S)N/N=C(/CC(=O)c1ccc([N+](=O)[O-])cc1)C(=O)Nc1ncc([N+](=O)[O-])s1	> 83.2	81.3	

SMILES	EC50 [µM]	IC50 [µM]	outcome
O=c1[nH]c2ccc(C(F)(F)F)cc2nc1-c1ccccc1	> 200	> 200	
Cc1ccc(S(=O)(=O)c2ccccc2)cc1	> 155	> 155	
O=C1CCC(C2(O)c3ccccc3-c3ccccc32)C(=O)N1 (stereo not drawn)	> 123	> 123	
O=C(O)CCSSCCC(=O)O	> 200	> 200	
O=[N+]([O-])c1ccc(-n2nc3ccc4c(no[n+]4[O-])c3n2)cc1	> 200	57.5	
Cc1cc2nnc(C(N)=O)c(N)c2cc1C	> 200	> 200	
COC(=O)[C@]1(C)CC[C@]2(C)CC[C@]3(C)C4CC[C@@]56CO[C@@](O)(CCC5[C@]4(C)CCC3(C)[C@@H]2C1)[C@@H]6C (stereo partly drawn)	> 28.2	26.9	
Cc1cc(N)c2ccccc2[n+]1CCCCCCCCCC[n+]1c(C)cc(N)c2ccccc21	> 24.5	0.155	
CCOC(=O)C(=Cn1ccc(=O)[nH]c1=S)C(=O)OCC	> 200	> 200	
CC(C)(C)CC(C)(C)c1cc2c(O)c(c1)Cc1cc(C(C)(C)CC(C)(C)C)cc(c1O)Cc1cc(C(C)(C)CC(C)(C)C)cc(c1O)Cc1cc(C(C)(C)CC(C)(C)C)cc(c1O)Cc1cc(C(C)(C)CC(C)(C)C)cc(c1O)Cc1cc(C(C)(C)CC(C)(C)C)cc(c1O)Cc1cc(C(C)(C)CC(C)(C)C)cc(c1O)Cc1cc(C(C)(C)CC(C)(C)C)cc(c1O)C2	> 2.04	> 2.04	
Cc1cn(C2CC(N=[N+]=[N-])C(COC(=O)[C@H]3CCC4[C@@H]5CCC6=CC(=O)CC[C@]6(C)C5[C@@H](O)C[C@@]43C)O2)c(=O)[nH]c1=O (stereo partly drawn)	0.138	24	
COc1c(Cl)cc(C(=CCN[C@H]2CC[C@@]3(C)[C@@H](CC[C@@H]4[C@@H]3CC[C@]3(C)[C@@H]([C@H](C)CCCC(C)C)CC[C@@H]43)C2)c2cc(Cl)c(OC)c(C(=O)O)c2)cc1C(=O)O	> 50.1	> 50.1	
Cc1ccc(S(=O)(=O)n2oc(=O)c(-c3ccccc3)c2N)cc1	> 200	55	
COc1ccccc1/C=C/c1ccc2ccccc2n1	> 200	38	
O=C1OCc2cccc3c2-c2c1cccc2C(=O)OC3			inactive
COc1cc2c(cc1OC)C(C#N)(Cc1ccccc1)N(C(=O)c1ccccc1)C=C2 (stereo not drawn)			inactive
Nc1cnc(Nc2cccc3ccccc23)o1	> 200	> 200	
CC[CH2][Sn]([CH2]CC)([O]C(=O)c1cccnc1SC)[O][Sn]([CH2]CC)([CH2]CC)[O]C(=O)c1cccnc1SC	> 24.5	5.62	
CC(=O)C(=[N+]=[N-])C(=O)NCC#N	> 200	> 200	
CN(C)c1ccc(C2N(C)CCN2C)cc1	> 200	> 200	
Cc1cn(C2CC(/[N+]([O-])=N\Nc3ccc([N+](=O)[O-])cc3)C(CO)O2)c(=O)[nH]c1=O (stereo not drawn)	> 200		

SMILES	EC50 [µM]	IC50 [µM]	outcome
CCCCCCCCCCCC1CC(=O)NCCCN(C)CCCCN(C)CCCN1C (stereo not drawn)	> 200	1.12	
c1ccc2c(c1)C1CCC2c2ccccc21	> 200	> 200	
S=C(N1CCN(c2ccc(Cl)c(Cl)c2)CC1)N1CCN(c2ccc(Cl)c(Cl)c2)CC1	> 200	10	
Nc1nc(Cl)c(N)c(NCC2(CO)CC(OCc3ccccc3)C2)n1 (stereo not drawn)	> 20	2.14	
c1scc2c1COCCOCCOCCOCCOCCOCCOC2	> 646	> 646	
CC(C)CCC[C@@H](C)C1CCC2[C@@H]3CC=C4C[C@@H](C(=O)NCCN(C)C)CC[C@]4(C)C3CC[C@@]21C (stereo partly drawn)			inactive
CCCCC(C)CCCC1=C(O)/C(=C/C(=O)O)OC1=O (stereo not drawn)	174	447	
CCSC(=O)n1nc(Cl)c2cc([N+](=O)[O-])ccc21	> 200	> 200	
Cc1ccc2c(c1)C1(C)OC(C=CC1=O)O2 (stereo not drawn)	> 3.16	0.525	
O=C(O)c1cc2cc([N+](=O)[O-])ccc2oc1=O	> 447	> 447	
COC(=O)C(/C(=N/NC(N)=O)C(=O)Nc1ccc(C)cc1)c1nc2ccc([N+](=O)[O-])cc2[nH]c1=O (stereo not drawn)	> 141	> 141	
Cc1occc1C(=S)Nc1ccc(Cl)c(C(=O)OCC2CC2)c1	0.0186	53.7	
COP(=O)(OC)C(NC=O)P(=O)(OC)OC	> 200	> 200	
CCO/C(Cc1ccc(Cl)cc1)=N/NC(N)=S	> 200	95.5	
O=[N+]([O-])c1ccc(CN=C2NNS(=O)(=O)c3ccccc32)cc1	> 15.8	> 15.8	
N#CC(C#N)=C1NC(=O)CC(=O)N1			inactive
Cc1ccc(C)c(NC(=O)CC2SC(=Nc3ccccc3Cl)NC2=O)c1 (stereo not drawn)	> 67.6	> 67.6	
O=C1OC(c2ccccc2)=N/C1=C\c1ccc2ccccc2c1	> 17.4	> 17.4	
CCOC1SC(SC)=NN1C(=O)C(OC(C)=O)C(OC(C)=O)C(OC(C)=O)C(OC(C)=O)C(=O)N1N=C(SC)SC1OCC (stereo not drawn)			inactive
Cc1cc2c(C(C)C)c(O)c(O)c(C=Nc3ccc(C(=O)NCC(=O)O)cc3)c2c(O)c1-c1c(C)cc2c(C(C)C)c(O)c(O)c(C=Nc3ccc(C(=O)NCC(=O)O)cc3)c2c1O	> 200	25.7	
COc1ccc(-c2cc(NC(=O)c3cnccn3)c(=O)oc2C)cc1	> 200	170	

SMILES	EC50 [µM]	IC50 [µM]	outcome
CCOC(=O)Nc1cc2c(c(N)n1)N=C(c1ccccc1)CO2	> 16.6	0.0933	
Cn1c2ccccc2c(=NNc2ccccc2C(=O)O)c2ccccc21	> 200	19.5	
C[C@@H]1OC2(O)[C@H]3CCCN3S(=O)(=O)CCN2C1=O (stereo partly drawn)	> 912	> 912	
O=Cc1cccc(/C=N/Nc2nnc(N/N=C/c3cccc(C=O)c3)c3ccccc23)c1	> 200	28.8	
NC(=O)CNC(=O)c1ccccc1SC(=O)OCCCCCl	26.3	> 200	
NC(N)=NCCN1CCCCCCC1	> 200	> 200	
O=C1Nc2ccc([N+](=O)[O-])c3c(C(=O)O)ccc1c23	> 200	141	
CS(=O)(=O)CS(C)(=O)=O	> 200	> 200	
C[N+]1(C)CCC(C#N)(c2ccccc2)CC1	> 724		
CCN1C(Cl)=NS(=O)(=O)c2ccccc21	> 200	91.2	
COC(=O)C1(Cc2ccccc2C)Cc2ccc(C)cc2C1=O (stereo not drawn)	> 200	57.5	
CC1(C)C2CC(c3ccncc3)ON2C(C)(C)N1O (stereo not drawn)	> 200	> 200	
O=c1c2cc([N+](=O)[O-])ccc2sc2ccsc12	> 97.7	> 97.7	
CC(=O)OCC1OC(n2c(=S)n(-c3ccc(C)cc3)c(=O)c3ccccc32)C(OC(C)=O)C(OC(C)=O)C1OC(C)=O (stereo not drawn)	> 31.6	> 31.6	
CCOC(=O)Cc1oc2c(C(C)=O)c(O)c(C)c(O)c2c1C	> 200	81.3	
O=C1CN=C(c2ccccn2)c2cc(Cl)ccc2N1	> 479	72.4	
N#Cc1c2ccc([N+](=O)[O-])cc2c(=O)n2c1[nH]c1ccc(C(F)(F)F)cc12	> 200	1.91	
O=C(OCc1ccccc1)N1CCNCCNCC1	> 200	> 200	
O=c1[nH]nc(NCCc2ccccc2)c2nnn(Cc3ccccc3)c12	> 200	> 200	
Cc1nc(N)nc2c1CCC(=O)N2	> 56.2	> 56.2	
Nc1cc2ncnn2c(SCC(=O)N/N=C/C(Br)=C\c2ccccc2)n1	> 200	7.94	

From PubChem BioAssay AID179 (DTP/NCI, 2004)
